Results: article PMC10653547, “Synergistic effect of two antimicrobial peptides, BP203 and MAP-0403 J-2 with conventional antibiotics against colistin-resistant Escherichia coli and Klebsiella pneumoniae clinical isolates” (PLOS ONE, 2023)

Tests used:
[1] = system: colistin-resistant E. coli clinical isolates; experiment: Disk diffusion antimicrobial susceptibility testing (CLSI); assay type: cell-based, Escherichia coli
Procedure: (§1) Ten non-duplicate clinical isolates of colistin-resistant E. coli (EC) and ten non-duplicate clinical isolates of colistin-resistant K. pneumoniae (KP) were obtained from the bacterial repository of the Division of Infectious Diseases and Tropical Medicine, Department of Medicine, Faculty of Medicine Siriraj Hospital, Mahidol University. The species identification was conducted through standard biochemical tests. Antimicrobial susceptibility testing was carried out using the disk diffusion method following CLSI guidelines. Additionally, the assessment of colistin resistance in all isolates was performed by broth microdilution following CLSI recommendations. […] The amino acid sequences of BP203 and MAP-0403 J-2 were retrieved from previous studies. These peptides are BP100 and MAP-0403 analogs, respectively. […] Antibiotic disks and defibrinated sheep blood were obtained from Oxoid (Basingstoke, UK). All culture media were purchased from Becton Dickinson (Frankin Lakes, NJ, USA). All chemicals were obtained from Sigma-Aldrich (St. Louis, MO, USA).

[2] = system: colistin-resistant K. pneumoniae clinical isolates; experiment: as above; assay type: cell-based, Klebsiella pneumoniae
Procedure: as §1

[3] = system: colistin-resistant E. coli clinical isolates; experiment: Checkerboard assay for synergy testing; assay type: cell-based, Escherichia coli
Procedure: (§2) The synergistic activities of various two-antimicrobial combinations against colistin-resistant E. coli and K. pneumoniae isolates were evaluated using the checkerboard assay, which was performed in 96-well plates. […] Two-fold serial dilutions of peptides and antibiotics were independently prepared in CAMHB. Afterward, a mixture of different concentrations of the antibiotics and peptides was added to the wells of the microplates. Antibiotics and peptides were also dispended alone in the first row and the first column, respectively. Bacterial inoculum was added to the 96-well plate to achieve a final concentration of 5 × 10^5 CFU/mL. Then, plates were incubated at 37 °C for 20–24 h. MICs were recorded as the minimum concentration of antimicrobial agents without bacterial growth. The interaction between the antimicrobials was determined by calculating the fractional inhibitory concentration index (FICI) according to the formula: FICI = FIC(drug A) + FIC(drug B), where FIC = the MIC of the drug when in the combination/MIC of drug tested individually.

[4] = system: colistin-resistant K. pneumoniae clinical isolates; experiment: Checkerboard assay for synergy testing; assay type: cell-based, Klebsiella pneumoniae
Procedure: as §2

[5] = isolate EC-01, checkerboard Chloramphenicol+BP203
[6] = isolate EC-01, checkerboard Chloramphenicol+MAP-0403 J-2
[7] = isolate EC-02, checkerboard Chloramphenicol+BP203
[8] = isolate EC-02, checkerboard Chloramphenicol+MAP-0403 J-2
[9] = isolate EC-03, checkerboard Chloramphenicol+BP203
[10] = isolate EC-03, checkerboard Chloramphenicol+MAP-0403 J-2
[11] = isolate EC-04, checkerboard Chloramphenicol+BP203
[12] = isolate EC-05, checkerboard Chloramphenicol+BP203
[13] = isolate EC-05, checkerboard Chloramphenicol+MAP-0403 J-2
[14] = isolate EC-06, checkerboard Chloramphenicol+BP203
[15] = isolate EC-06, checkerboard Chloramphenicol+MAP-0403 J-2
[16] = isolate EC-07, checkerboard Chloramphenicol+BP203
[17] = isolate EC-07, checkerboard Chloramphenicol+MAP-0403 J-2
[18] = isolate EC-08, checkerboard Chloramphenicol+BP203
[19] = isolate EC-08, checkerboard Chloramphenicol+MAP-0403 J-2
[20] = isolate EC-09, checkerboard Chloramphenicol+BP203
[21] = isolate EC-09, checkerboard Chloramphenicol+MAP-0403 J-2
[22] = isolate EC-10, checkerboard Chloramphenicol+BP203
[23] = isolate EC-10, checkerboard Chloramphenicol+MAP-0403 J-2
[24] = isolate KP-01, checkerboard Chloramphenicol+BP203
[25] = isolate KP-01, checkerboard Chloramphenicol+MAP-0403 J-2
[26] = isolate KP-02, checkerboard Chloramphenicol+BP203
[27] = isolate KP-02, checkerboard Chloramphenicol+MAP-0403 J-2
[28] = isolate KP-03, checkerboard Chloramphenicol+BP203
[29] = isolate KP-03, checkerboard Chloramphenicol+MAP-0403 J-2
[30] = isolate KP-04, checkerboard Chloramphenicol+BP203
[31] = isolate KP-04, checkerboard Chloramphenicol+MAP-0403 J-2
[32] = isolate KP-05, checkerboard Chloramphenicol+BP203
[33] = isolate KP-05, checkerboard Chloramphenicol+MAP-0403 J-2
[34] = isolate KP-06, checkerboard Chloramphenicol+BP203
[35] = isolate KP-06, checkerboard Chloramphenicol+MAP-0403 J-2
[36] = isolate KP-07, checkerboard Chloramphenicol+BP203
[37] = isolate KP-07, checkerboard Chloramphenicol+MAP-0403 J-2
[38] = isolate KP-08, checkerboard Chloramphenicol+BP203
[39] = isolate KP-08, checkerboard Chloramphenicol+MAP-0403 J-2
[40] = isolate KP-09, checkerboard Chloramphenicol+BP203
[41] = isolate KP-09, checkerboard Chloramphenicol+MAP-0403 J-2
[42] = isolate KP-10, checkerboard Chloramphenicol+BP203
[43] = isolate KP-10, checkerboard Chloramphenicol+MAP-0403 J-2

- MIC alone [3, 5]: 128 µg/mL
- MIC combination [3, 5]: 1 µg/mL
- MIC alone [3, 6]: 128 µg/mL
- MIC combination [3, 6]: 64 µg/mL
- MIC alone [3, 7]: 64 µg/mL
- MIC combination [3, 7]: 32 µg/mL
- MIC alone [3, 8]: 64 µg/mL
- MIC combination [3, 8]: 32 µg/mL
- MIC alone [3, 9]: 64 µg/mL
- MIC combination [3, 9]: 32 µg/mL
- MIC alone [3, 10]: 64 µg/mL
- MIC combination [3, 10]: 16 µg/mL
- MIC alone [3, 11]: 32 µg/mL
- MIC combination [3, 11]: 1 µg/mL
- MIC combination ([3]; isolate EC-04, checkerboard Chloramphenicol+MAP-0403 J-2): 128 µg/mL
- MIC alone [3, 12]: 64 µg/mL
- MIC combination [3, 12]: 32 µg/mL
- MIC alone [3, 13]: 64 µg/mL
- MIC combination [3, 13]: 32 µg/mL
- MIC alone [3, 14]: 16 µg/mL
- MIC combination [3, 14]: 4 µg/mL
- MIC alone [3, 15]: 8 µg/mL
- MIC combination [3, 15]: 4 µg/mL
- MIC alone [3, 16]: 256 µg/mL
- MIC combination [3, 16]: 64 µg/mL
- MIC alone [3, 17]: 64 µg/mL
- MIC combination [3, 17]: 32 µg/mL
- MIC alone [3, 18]: 64 µg/mL
- MIC combination [3, 18]: 32 µg/mL
- MIC alone [3, 19]: 64 µg/mL
- MIC combination [3, 19]: 16 µg/mL
- MIC alone [3, 20]: 256 µg/mL
- MIC combination [3, 20]: 64 µg/mL
- MIC alone [3, 21]: 256 µg/mL
- MIC combination [3, 21]: 64 µg/mL
- MIC alone [3, 22]: 256 µg/mL
- MIC combination [3, 22]: 32 µg/mL
- MIC alone [3, 23]: 256 µg/mL
- MIC combination [3, 23]: 64 µg/mL
- MIC alone [4, 24]: 512 µg/mL
- MIC combination [4, 24]: 128 µg/mL
- MIC alone [4, 25]: 1020 µg/mL
- MIC combination [4, 25]: 256 µg/mL
- MIC alone [4, 26]: 512 µg/mL
- MIC combination [4, 26]: 128 µg/mL
- MIC alone [4, 27]: 512 µg/mL
- MIC combination [4, 27]: 128 µg/mL
- MIC alone [4, 28]: 8 µg/mL
- MIC combination [4, 28]: 2 µg/mL
- MIC alone [4, 29]: 8 µg/mL
- MIC combination [4, 29]: 2 µg/mL
- MIC alone [4, 30]: 8 µg/mL
- MIC combination [4, 30]: 4 µg/mL
- MIC alone [4, 31]: 8 µg/mL
- MIC combination [4, 31]: 2 µg/mL
- MIC alone [4, 32]: 4 µg/mL
- MIC combination [4, 32]: 2 µg/mL
- MIC alone [4, 33]: 1020 µg/mL
- MIC combination [4, 33]: 256 µg/mL
- MIC alone [4, 34]: 512 µg/mL
- MIC combination [4, 34]: 128 µg/mL
- MIC alone [4, 35]: 32 µg/mL
- MIC combination [4, 35]: 8 µg/mL
- MIC alone [4, 36]: 512 µg/mL
- MIC combination [4, 36]: 128 µg/mL
- MIC alone [4, 37]: 8 µg/mL
- MIC combination [4, 37]: 4 µg/mL
- MIC alone [4, 38]: 4 µg/mL
- MIC combination [4, 38]: 1 µg/mL
- MIC alone [4, 39]: 8 µg/mL
- MIC combination [4, 39]: 4 µg/mL
- MIC alone [4, 40]: 32 µg/mL
- MIC combination [4, 40]: 4 µg/mL
- MIC alone [4, 41]: 32 µg/mL
- MIC combination [4, 41]: 16 µg/mL
- MIC alone [4, 42]: 64 µg/mL
- MIC combination [4, 42]: 8 µg/mL
- MIC alone [4, 43]: 64 µg/mL
- MIC combination [4, 43]: 4 µg/mL
SMILES: O=C(N[C@H](CO)[C@H](O)c1ccc([N+](=O)[O-])cc1)C(Cl)Cl [C, chloramphenicol]
- Interpreted results of disk diffusion ([1]; EC-01): R
- Interpreted results of disk diffusion ([1]; EC-02): R
- Interpreted results of disk diffusion ([1]; EC-03): R
- Interpreted results of disk diffusion ([1]; EC-04): R
- Interpreted results of disk diffusion ([1]; EC-05): R
- Interpreted results of disk diffusion ([1]; EC-06): S
- Interpreted results of disk diffusion ([1]; EC-07): R
- Interpreted results of disk diffusion ([1]; EC-08): R
- Interpreted results of disk diffusion ([1]; EC-09): R
- Interpreted results of disk diffusion ([1]; EC-10): R
- %Resistance ([1]; ten E. coli isolates, disk diffusion): 90%
- Interpreted results of disk diffusion ([2]; KP-01): R
- Interpreted results of disk diffusion ([2]; KP-02): R
- Interpreted results of disk diffusion ([2]; KP-03): S
- Interpreted results of disk diffusion ([2]; KP-04): S
- Interpreted results of disk diffusion ([2]; KP-05): S
- Interpreted results of disk diffusion ([2]; KP-06): R
- Interpreted results of disk diffusion ([2]; KP-07): I
- Interpreted results of disk diffusion ([2]; KP-08): S
- Interpreted results of disk diffusion ([2]; KP-09): I
- Interpreted results of disk diffusion ([2]; KP-10): R
- %Resistance ([2]; ten K. pneumoniae isolates, disk diffusion): 40%
